What was measured:
[1] = system: NR1–2a-containing NMDA receptor subtypes; format: cell-based, rat; conditions: 10 µM
[2] = target: NR1-2b/NR2B NMDA receptor (Rattus norvegicus, UniProt P35439+Q00960); format: cell-based
[3] = format: physicochemical; conditions: pH 7
[4] = target: NR1-2b/NR2C NMDA receptor (Rattus norvegicus, UniProt P35439+Q00961); format: cell-based; conditions: 10 µM
[5] = system: 6 Hz partial psychomotor seizure
[6] = target: NR1-2b/NR2D NMDA receptor (Rattus norvegicus, UniProt P35439+Q62645); format: cell-based; conditions: 10 µM
Sequence of NR1-2b/NR2D NMDA receptor (Q62645 28-1323, other chains not shown): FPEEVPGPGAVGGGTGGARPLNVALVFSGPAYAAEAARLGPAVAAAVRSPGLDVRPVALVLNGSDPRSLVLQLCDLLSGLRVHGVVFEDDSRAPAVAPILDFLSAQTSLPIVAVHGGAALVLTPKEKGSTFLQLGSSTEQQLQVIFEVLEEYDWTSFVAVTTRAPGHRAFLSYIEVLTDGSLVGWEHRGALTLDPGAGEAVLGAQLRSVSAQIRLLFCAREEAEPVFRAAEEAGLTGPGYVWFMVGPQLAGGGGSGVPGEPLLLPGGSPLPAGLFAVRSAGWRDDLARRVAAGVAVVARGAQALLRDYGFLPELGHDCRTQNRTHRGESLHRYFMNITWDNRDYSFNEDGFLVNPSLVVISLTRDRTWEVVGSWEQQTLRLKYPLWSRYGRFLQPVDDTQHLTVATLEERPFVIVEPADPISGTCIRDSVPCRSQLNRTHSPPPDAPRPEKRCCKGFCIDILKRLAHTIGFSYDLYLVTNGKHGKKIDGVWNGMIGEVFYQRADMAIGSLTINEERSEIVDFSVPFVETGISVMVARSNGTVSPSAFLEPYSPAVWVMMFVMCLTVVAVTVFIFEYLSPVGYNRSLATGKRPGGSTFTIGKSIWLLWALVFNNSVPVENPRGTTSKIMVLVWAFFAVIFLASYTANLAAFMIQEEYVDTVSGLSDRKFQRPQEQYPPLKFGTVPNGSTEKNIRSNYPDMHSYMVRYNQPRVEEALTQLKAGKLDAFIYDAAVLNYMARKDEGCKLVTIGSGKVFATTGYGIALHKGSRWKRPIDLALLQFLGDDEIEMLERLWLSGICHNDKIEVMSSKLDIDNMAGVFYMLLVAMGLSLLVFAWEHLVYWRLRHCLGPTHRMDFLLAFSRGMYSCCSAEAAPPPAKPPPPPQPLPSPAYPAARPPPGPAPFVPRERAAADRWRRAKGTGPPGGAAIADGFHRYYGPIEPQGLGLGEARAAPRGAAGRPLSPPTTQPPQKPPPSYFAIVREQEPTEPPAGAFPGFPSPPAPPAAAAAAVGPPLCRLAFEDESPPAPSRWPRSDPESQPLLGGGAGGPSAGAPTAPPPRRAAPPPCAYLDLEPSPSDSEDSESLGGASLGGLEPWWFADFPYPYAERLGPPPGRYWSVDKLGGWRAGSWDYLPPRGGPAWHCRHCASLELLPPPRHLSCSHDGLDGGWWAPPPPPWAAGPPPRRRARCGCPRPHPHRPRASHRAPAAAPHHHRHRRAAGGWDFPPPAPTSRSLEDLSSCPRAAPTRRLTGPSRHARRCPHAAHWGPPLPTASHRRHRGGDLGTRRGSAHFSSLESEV

Sequence of NR1-2b/NR2B NMDA receptor (Q00960 27-1482, other chains not shown): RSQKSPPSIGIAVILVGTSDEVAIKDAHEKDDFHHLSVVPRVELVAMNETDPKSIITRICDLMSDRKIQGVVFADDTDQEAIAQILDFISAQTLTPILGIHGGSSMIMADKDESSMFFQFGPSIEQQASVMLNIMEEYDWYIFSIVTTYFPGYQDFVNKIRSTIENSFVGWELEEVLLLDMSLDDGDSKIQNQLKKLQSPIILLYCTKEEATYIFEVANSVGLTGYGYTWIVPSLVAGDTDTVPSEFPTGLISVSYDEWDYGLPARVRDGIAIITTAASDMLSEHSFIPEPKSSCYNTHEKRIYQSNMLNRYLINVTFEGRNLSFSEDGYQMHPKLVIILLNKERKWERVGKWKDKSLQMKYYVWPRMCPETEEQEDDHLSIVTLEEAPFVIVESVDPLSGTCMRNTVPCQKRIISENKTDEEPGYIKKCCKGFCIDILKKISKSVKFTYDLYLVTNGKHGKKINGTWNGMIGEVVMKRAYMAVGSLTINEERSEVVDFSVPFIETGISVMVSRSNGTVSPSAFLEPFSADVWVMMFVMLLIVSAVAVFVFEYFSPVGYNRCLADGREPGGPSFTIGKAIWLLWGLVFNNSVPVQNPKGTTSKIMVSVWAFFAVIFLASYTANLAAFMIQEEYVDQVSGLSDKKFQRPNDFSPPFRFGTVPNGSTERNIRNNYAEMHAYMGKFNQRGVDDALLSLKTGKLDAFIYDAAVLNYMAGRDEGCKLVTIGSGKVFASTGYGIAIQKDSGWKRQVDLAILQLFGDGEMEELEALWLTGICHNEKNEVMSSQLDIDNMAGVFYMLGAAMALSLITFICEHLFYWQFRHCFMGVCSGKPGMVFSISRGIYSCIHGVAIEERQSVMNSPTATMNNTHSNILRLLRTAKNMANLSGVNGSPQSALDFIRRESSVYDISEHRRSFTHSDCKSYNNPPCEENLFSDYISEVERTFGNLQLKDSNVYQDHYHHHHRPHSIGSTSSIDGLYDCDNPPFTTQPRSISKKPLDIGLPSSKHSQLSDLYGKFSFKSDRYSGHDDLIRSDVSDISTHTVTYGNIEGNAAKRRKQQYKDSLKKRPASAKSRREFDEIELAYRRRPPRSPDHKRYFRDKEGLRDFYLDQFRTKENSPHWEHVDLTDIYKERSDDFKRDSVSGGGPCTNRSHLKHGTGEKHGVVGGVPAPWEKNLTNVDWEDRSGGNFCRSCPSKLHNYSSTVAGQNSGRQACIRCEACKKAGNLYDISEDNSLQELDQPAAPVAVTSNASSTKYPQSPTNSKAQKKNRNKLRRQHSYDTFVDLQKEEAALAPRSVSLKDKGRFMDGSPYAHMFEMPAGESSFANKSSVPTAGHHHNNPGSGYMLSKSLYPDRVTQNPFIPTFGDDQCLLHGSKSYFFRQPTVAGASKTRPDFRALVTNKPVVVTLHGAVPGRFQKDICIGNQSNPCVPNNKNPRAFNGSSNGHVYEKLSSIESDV
Sequence of NR1-2b/NR2C NMDA receptor (Q00961 20-1237, other chains not shown): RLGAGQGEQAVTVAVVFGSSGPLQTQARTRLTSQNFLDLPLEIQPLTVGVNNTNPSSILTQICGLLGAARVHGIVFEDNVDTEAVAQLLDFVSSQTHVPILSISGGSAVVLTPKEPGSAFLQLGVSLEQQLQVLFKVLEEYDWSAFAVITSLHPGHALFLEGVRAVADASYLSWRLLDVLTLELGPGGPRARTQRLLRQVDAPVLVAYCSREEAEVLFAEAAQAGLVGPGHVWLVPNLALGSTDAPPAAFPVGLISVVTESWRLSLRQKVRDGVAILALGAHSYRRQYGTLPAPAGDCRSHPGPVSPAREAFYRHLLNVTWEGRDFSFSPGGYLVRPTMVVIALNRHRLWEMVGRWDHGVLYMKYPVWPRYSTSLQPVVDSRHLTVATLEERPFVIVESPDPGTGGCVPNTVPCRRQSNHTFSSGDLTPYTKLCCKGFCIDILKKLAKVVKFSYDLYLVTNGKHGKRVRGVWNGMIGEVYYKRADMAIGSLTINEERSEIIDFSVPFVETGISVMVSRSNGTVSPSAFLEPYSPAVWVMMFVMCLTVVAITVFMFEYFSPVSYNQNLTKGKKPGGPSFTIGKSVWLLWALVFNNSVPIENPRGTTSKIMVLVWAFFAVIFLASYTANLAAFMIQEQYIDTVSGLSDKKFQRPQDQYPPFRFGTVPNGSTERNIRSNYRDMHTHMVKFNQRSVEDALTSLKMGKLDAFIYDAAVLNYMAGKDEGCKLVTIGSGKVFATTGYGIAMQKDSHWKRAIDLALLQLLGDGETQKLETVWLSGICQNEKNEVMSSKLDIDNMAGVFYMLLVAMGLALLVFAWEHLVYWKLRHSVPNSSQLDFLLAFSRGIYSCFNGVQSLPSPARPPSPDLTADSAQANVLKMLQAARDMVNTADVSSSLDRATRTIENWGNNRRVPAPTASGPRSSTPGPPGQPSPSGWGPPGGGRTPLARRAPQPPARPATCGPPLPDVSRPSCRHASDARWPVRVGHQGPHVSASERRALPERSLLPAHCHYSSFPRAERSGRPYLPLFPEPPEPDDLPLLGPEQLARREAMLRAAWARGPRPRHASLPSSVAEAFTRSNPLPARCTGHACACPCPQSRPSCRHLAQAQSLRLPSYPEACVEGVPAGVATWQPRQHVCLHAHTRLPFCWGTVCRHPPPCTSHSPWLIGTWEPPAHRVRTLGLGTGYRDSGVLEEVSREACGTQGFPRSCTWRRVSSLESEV

With CC(C)C[C@H](NC(=O)[C@H](CC(C(=O)O)C(=O)O)NC(=O)[C@H](CCCNC(=N)N)NC(=O)[C@H](C)NC(=O)[C@H](Cc1ccccc1)NC(=O)[C@H](CC(C(=O)O)C(=O)O)NC(=O)[C@@H]1C[C@@H](O)CN1C(=O)[C@H](C)NC(=O)[C@H](CCCCN)NC(=O)[C@H](CC(C(=O)O)C(=O)O)NC(=O)[C@H](C)NC(=O)[C@H](CC(C)C)NC(=O)[C@H](CC(C(=O)O)C(=O)O)NC(=O)[C@H](CC(C(=O)O)C(=O)O)NC(=O)[C@H](CCC(=O)O)NC(=O)CN)C(=O)N[C@@H](C)C(=O)N[C@@H](CC(N)=O)C(N)=O [ConRl-B] the “potency on NR1-2a-containing subtypes” value [1] was “little or no potency”, the “discrimination between NR2B and all other NR2 subunits” value [2] was “at least 100 fold” and the “estimated helical content in the presence of calcium” value [3] was 59%. For the same compound, the “estimated percentage of helicity in the absence of calcium” value [3] was 10%, the “percent of helical transition induced by calcium” value [3] was 49% and the “antagonist activity at the highest concentration tested, NR2C” value [4] was “little or no antagonist activity”. For the same compound, the “rectal body temperature versus saline control group” value ([5]; mouse, in vivo) was “did not differ between groups”, the “mice protected from seizures” value ([5]; n=8) was 50% and the “antagonist activity at the highest concentration tested, NR2D” value [6] was “little or no antagonist activity”.
